Values of other authors in patent US20050186288A1, “Compositions and methods for the prophylaxis and treatment of aphthous ulcers and herpes simplex lesions” (Chiou Consulting Inc., priority 2002, published 2005).

Test system: herpes infection (wound or ulcer)
Details: salt alone

Substance | effect in treating herpes infection (wound or ulcer)
magnesium pentosan polysulfate | ineffective
zinc pentosan polysulfate | ineffective
